Data from patent US20120029187A1, “HALOALKYLSULFONANILIDE DERIVATIVE” (Nissan Chemical Industries, Ltd., priority 2009, published 2012).

Assays:
Format in all cases: in vivo
common chickweed [1] = test: Test Example 4: herbicidal effect in foliage treatment
In short: (§1)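 Herbicidal effect was rated on an evaluation scale three weeks after treatment. Plants had been raised 14 days at 25 to 30° C in sterilized diluvial soil, then received foliar sprays of emulsifiable concentrate diluted in water at predetermined doses expressed as g per are.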

posumbu knotweed [2] = test: as above
In short: as §1

beadstraw = test: as above
In short: as §1

Italian ryegrass [3] = test: as above
In short: as §1

velvetleaf [4] = test: as above
In short: as §1

barnyardgrass [5] = test: as above
In short: as §1

redroot pigweed [6] = test: as above
In short: as §1

large crabgrass [7] = test: as above
In short: as §1

water foxtail [8] = test: as above
In short: as §1

wild oat [9] = test: as above
In short: as §1

common lambsquater [10] = test: as above
In short: as §1

common ragweed [11] = test: as above
In short: as §1

giant foxtail [12] = test: as above
In short: as §1

transplanted rice = test: Test Example 1: preemergence treatment under submerged conditions, effect on crop; details: dose 2.52 g/a
In short: (§2)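 Alluvial soil was flooded to 4 cm, sown with barnyardgrass, bulrush and ducksalad, and planted with 2.5-leaf rice seedlings. On the seeding day, water-diluted emulsifiable concentrates were applied to the water surface at set doses (g/a). After three weeks in a 25 to 30° C. greenhouse, mortality was scored 0–5.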

bulrush [13] = test: Test Example 2: herbicidal effects during the vegetation period under submerged conditions; details: treatment during the vegetation period under submerged conditions; dose 2.52 g/a
In short: (§3)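 Barnyardgrass, bulrush and ducksalad were co-sown in alluvial soil flooded to 4 cm and grown in a greenhouse at 25 to 30° C. At the 1- or 2-leaf stage, water-diluted emulsifiable concentrates went onto the water surface at set doses (g/a). Herbicidal effect was scored three weeks later on a graded scale.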

ducksalad [14] = test: as above; details: treatment during the vegetation period under submerged conditions; dose 2.52 g/a
In short: as §3

barnyardgrass [15] = test: as above; details: treatment during the vegetation period under submerged conditions; dose 2.52 g/a
In short: as §3

bulrush [16] = test: Test Example 1: herbicidal effects in preemergence treatment under submerged conditions; details: dose 2.52 g/a
In short: as §2

ducksalad [17] = test: as above; details: dose 2.52 g/a
In short: as §2

barnyardgrass [18] = test: as above; details: dose 2.52 g/a
In short: as §2

common chickweed [19] = test: Test Example 3: herbicidal effects in soil treatment
In short: (§4)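 Seeds were sown in sterilized diluvial soil and covered with about 1.5 cm of soil. Compounds, formulated as emulsifiable concentrates and diluted with water, were sprayed evenly over the soil surface at set doses in g/a. Herbicidal effect was scored on a rating scale three weeks later.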

posumbu knotweed [20] = test: as above
In short: as §4

Italian ryegrass [21] = test: as above
In short: as §4

velvetleaf [22] = test: as above
In short: as §4

barnyardgrass [23] = test: as above
In short: as §4

redroot pigweed [24] = test: as above
In short: as §4

large crabgrass [25] = test: as above
In short: as §4

water foxtail [26] = test: as above
In short: as §4

wild oat [27] = test: as above
In short: as §4

common lambsquater [28] = test: as above
In short: as §4

common ragweed [29] = test: as above
In short: as §4

giant foxtail [30] = test: as above
In short: as §4

[31] = dose 3.2 g/a, three weeks after the application
[32] = dose 6.3 g/a, three weeks after application

Compound: CCN1COCN(Cc2ccccc2NS(=O)(=O)C(F)(F)F)C1=O [IV-5]
- N: common chickweed, herbicidal effect (common chickweed [1]; [31]): 4 (mortality of at least 70% and less than 90%)
- M: posumbu knotweed, herbicidal effect (posumbu knotweed [2]; [31]): 0 (mortality of less than 5% (almost ineffective))
- O: beadstraw, herbicidal effect (beadstraw; [31]): 3 (mortality of at least 40% and less than 70%)
- H: Italian ryegrass, herbicidal effect (Italian ryegrass [3]; [31]): 3 (mortality of at least 40% and less than 70%)
- I: velvetleaf, herbicidal effect (velvetleaf [4]; [31]): 5 (mortality of 90% or above (nearly complete death))
- A: barnyardgrass, herbicidal effect (barnyardgrass [5]; [31]): 5 (mortality of 90% or above (nearly complete death))
- K: redroot pigweed, herbicidal effect (redroot pigweed [6]; [31]): 0 (mortality of less than 5% (almost ineffective))
- D: large crabgrass, herbicidal effect (large crabgrass [7]; [31]): 4 (mortality of at least 70% and less than 90%)
- G: water foxtail, herbicidal effect (water foxtail [8]; [31]): 5 (mortality of 90% or above (nearly complete death))
- F: wild oat, herbicidal effect (wild oat [9]; [31]): 0 (mortality of less than 5% (almost ineffective))
- L: common lambsquater, herbicidal effect (common lambsquater [10]; [31]): 3 (mortality of at least 40% and less than 70%)
- J: common ragweed, herbicidal effect (common ragweed [11]; [31]): 3 (mortality of at least 40% and less than 70%)
- E: giant foxtail, herbicidal effect (giant foxtail [12]; [31]): 4 (mortality of at least 70% and less than 90%)
- a: transplanted rice, effect on crop (evaluation scale 0-5) (transplanted rice): 0 (mortality of less than 5% (almost ineffective))
- B: bulrush, herbicidal effect (evaluation scale 0-5) (bulrush [13]): 5 (mortality of 90% or above (nearly complete death))
- C: ducksalad, herbicidal effect (evaluation scale 0-5) (ducksalad [14]): 5 (mortality of 90% or above (nearly complete death))
- A: barnyardgrass, herbicidal effect (evaluation scale 0-5) (barnyardgrass [15]): 5 (mortality of 90% or above (nearly complete death))
- B: bulrush, herbicidal effect (evaluation scale 0-5) (bulrush [16]): 5 (mortality of 90% or above (nearly complete death))
- C: ducksalad, herbicidal effect (evaluation scale 0-5) (ducksalad [17]): 4 (mortality of at least 70% and less than 90%)
- A: barnyardgrass, herbicidal effect (evaluation scale 0-5) (barnyardgrass [18]): 5 (mortality of 90% or above (nearly complete death))
- herbicidal effect, N: common chickweed (common chickweed [19]; dose 3.2 g/a): 5 (mortality of 90% or above (nearly complete death))
- herbicidal effect, M: posumbu knotweed (posumbu knotweed [20]; dose 3.2 g/a): 4 (mortality of at least 70% and less than 90%)
- herbicidal effect, H: Italian ryegrass (Italian ryegrass [21]; dose 3.2 g/a): 4 (mortality of at least 70% and less than 90%)
- herbicidal effect, I: velvetleaf (velvetleaf [22]; dose 3.2 g/a): 5 (mortality of 90% or above (nearly complete death))
- herbicidal effect, A: barnyardgrass (barnyardgrass [23]; dose 3.2 g/a): 5 (mortality of 90% or above (nearly complete death))
- herbicidal effect, K: redroot pigweed (redroot pigweed [24]; dose 3.2 g/a): 3 (mortality of at least 40% and less than 70%)
- herbicidal effect, D: large crabgrass (large crabgrass [25]; dose 3.2 g/a): 5 (mortality of 90% or above (nearly complete death))
- herbicidal effect, G: water foxtail (water foxtail [26]; dose 3.2 g/a): 5 (mortality of 90% or above (nearly complete death))
- herbicidal effect, F: wild oat (wild oat [27]; dose 3.2 g/a): 2 (mortality of at least 20% and less than 40%)
- herbicidal effect, L: common lambsquater (common lambsquater [28]; dose 3.2 g/a): 3 (mortality of at least 40% and less than 70%)
- herbicidal effect, J: common ragweed (common ragweed [29]; dose 3.2 g/a): 0 (mortality of less than 5% (almost ineffective))
- herbicidal effect, E: giant foxtail (giant foxtail [30]; dose 3.2 g/a): 5 (mortality of 90% or above (nearly complete death))

Compound: O=C1CCOCN1Cc1ccccc1NS(=O)(=O)C(F)(F)F [II-1]
- N: common chickweed, herbicidal effect (common chickweed [1]; [32]): 4 (mortality of at least 70% and less than 90%)
- M: posumbu knotweed, herbicidal effect (posumbu knotweed [2]; [32]): 0 (mortality of less than 5% (almost ineffective))
- O: beadstraw, herbicidal effect (beadstraw; [32]): 4 (mortality of at least 70% and less than 90%)
- H: Italian ryegrass, herbicidal effect (Italian ryegrass [3]; [32]): 4 (mortality of at least 70% and less than 90%)
- I: velvetleaf, herbicidal effect (velvetleaf [4]; [32]): 5 (mortality of 90% or above (nearly complete death))
- A: barnyardgrass, herbicidal effect (barnyardgrass [5]; [32]): 5 (mortality of 90% or above (nearly complete death))
- K: redroot pigweed, herbicidal effect (redroot pigweed [6]; [32]): 0 (mortality of less than 5% (almost ineffective))
- D: large crabgrass, herbicidal effect (large crabgrass [7]; [32]): 5 (mortality of 90% or above (nearly complete death))
- G: water foxtail, herbicidal effect (water foxtail [8]; [32]): 5 (mortality of 90% or above (nearly complete death))
- F: wild oat, herbicidal effect (wild oat [9]; [32]): 1 (mortality of at least 5% and less than 20%)
- L: common lambsquater, herbicidal effect (common lambsquater [10]; [32]): 4 (mortality of at least 70% and less than 90%)
- J: common ragweed, herbicidal effect (common ragweed [11]; [32]): 4 (mortality of at least 70% and less than 90%)
- E: giant foxtail, herbicidal effect (giant foxtail [12]; [32]): 5 (mortality of 90% or above (nearly complete death))
- a: transplanted rice, effect on crop (evaluation scale 0-5) (transplanted rice): 3 (mortality of at least 40% and less than 70%)
- B: bulrush, herbicidal effect (evaluation scale 0-5) (bulrush [13]): 5 (mortality of 90% or above (nearly complete death))
- C: ducksalad, herbicidal effect (evaluation scale 0-5) (ducksalad [14]): 5 (mortality of 90% or above (nearly complete death))
- A: barnyardgrass, herbicidal effect (evaluation scale 0-5) (barnyardgrass [15]): 5 (mortality of 90% or above (nearly complete death))
- B: bulrush, herbicidal effect (evaluation scale 0-5) (bulrush [16]): 5 (mortality of 90% or above (nearly complete death))
- C: ducksalad, herbicidal effect (evaluation scale 0-5) (ducksalad [17]): 5 (mortality of 90% or above (nearly complete death))
- A: barnyardgrass, herbicidal effect (evaluation scale 0-5) (barnyardgrass [18]): 5 (mortality of 90% or above (nearly complete death))
- N: common chickweed, herbicidal effect (evaluation scale 0-5) (common chickweed [19]; dose 6.3 g/a): 5 (mortality of 90% or above (nearly complete death))
- M: posumbu knotweed, herbicidal effect (evaluation scale 0-5) (posumbu knotweed [20]; dose 6.3 g/a): 1 (mortality of at least 5% and less than 20%)
- H: Italian ryegrass, herbicidal effect (evaluation scale 0-5) (Italian ryegrass [21]; dose 6.3 g/a): 3 (mortality of at least 40% and less than 70%)
- I: velvetleaf, herbicidal effect (evaluation scale 0-5) (velvetleaf [22]; dose 6.3 g/a): 5 (mortality of 90% or above (nearly complete death))
- A: barnyardgrass, herbicidal effect (evaluation scale 0-5) (barnyardgrass [23]; dose 6.3 g/a): 5 (mortality of 90% or above (nearly complete death))
- K: redroot pigweed, herbicidal effect (evaluation scale 0-5) (redroot pigweed [24]; dose 6.3 g/a): 1 (mortality of at least 5% and less than 20%)
- D: large crabgrass, herbicidal effect (evaluation scale 0-5) (large crabgrass [25]; dose 6.3 g/a): 5 (mortality of 90% or above (nearly complete death))
- G: water foxtail, herbicidal effect (evaluation scale 0-5) (water foxtail [26]; dose 6.3 g/a): 5 (mortality of 90% or above (nearly complete death))
- F: wild oat, herbicidal effect (evaluation scale 0-5) (wild oat [27]; dose 6.3 g/a): 0 (mortality of less than 5% (almost ineffective))
- L: common lambsquater, herbicidal effect (evaluation scale 0-5) (common lambsquater [28]; dose 6.3 g/a): 5 (mortality of 90% or above (nearly complete death))
- J: common ragweed, herbicidal effect (evaluation scale 0-5) (common ragweed [29]; dose 6.3 g/a): 5 (mortality of 90% or above (nearly complete death))
- E: giant foxtail, herbicidal effect (evaluation scale 0-5) (giant foxtail [30]; dose 6.3 g/a): 5 (mortality of 90% or above (nearly complete death))
